This assay has as its system primary rat mixed cortical cells. Nature of the assay: In vitro myelination assay (MBP positive myelin strands, fold myelin pixels above background). Type of assay: cell-based. To be noted: for fold induction at 1 µM / fold induction at 10 µM: Rattus norvegicus. The essentials:
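Myelination read as total MBP-immunopositive strand pixels per well, imaged at 10× after fixation on day 14 and expressed relative to untreated wells, at 1.0 and 10.0 μM. Cells: dissociated postnatal day 1 rat cortex, cultured two weeks with compound, re-dosed at days 6 and 10.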

[1] abbreviates: 1.0 μM compound, relative to baseline of no added compound, read-out: Fold myelin pixels above background, 1.0 μM.
Where [2] appears, read: 10.0 μM compound, relative to baseline of no added compound, read-out: Fold myelin pixels above background, 10.0 μM.
Setting [3] is: 1.0 μM compound, relative to baseline of no added compound, read-out: Fold myelin pixels above background.
The mark [4] stands for this setting: 10.0 μM compound, relative to baseline of no added compound, read-out: Fold myelin pixels above background.
[5] abbreviates: 1.0 μM compound, read-out: Fold myelin pixels above background relative to baseline of no added compound.
Where [6] appears, read: 10.0 μM compound, read-out: Fold myelin pixels above background relative to baseline of no added compound.

Structures are written as SMILES. Read-outs that look alike come from different tables or passages of the source.

In the case of `Cc1cc(Nc2ncn(-c3ccc(F)c(F)c3)n2)cc(N2CCOCC2)c1` [Compound 43, 1-(3,4-difluorophenyl)-N-(3-methyl-5-morpholino-phenyl)-1,2,4-triazol-3-amine], under setting [1], the fold induction at 1 µM lay within 100 to 1000. Also, the fold induction at 10 µM under setting [2] fell in the range of 100 to 1000.

On to `Cc1cc(Nc2ncn(-c3cccc(C(F)(F)F)c3)n2)cc(N2CCCC2)c1` [Compound 190, N-(3-methyl-5-pyrrolidin-1-yl-phenyl)-1-[3-(trifluoromethyl)phenyl]-1,2,4-triazol-3-amine], for which, under setting [1], the fold induction at 1 µM fell in the range of 1 to 10. Also, the fold induction at 10 µM under setting [2] was no more than 1.

Regarding `Cc1cc(Nc2ncn(-c3cc(F)ccc3F)n2)cc(N2CCN(C3COC3)CC2)c1` [Compound 437, 1-(2,5-difluorophenyl)-N-[3-methyl-5-[4-(oxetan-3-yl)piperazin-1-yl]phenyl]-1,2,4-triazol-3-amine], the fold induction at 1 µM under setting [3] was 10 to 100. Also, the fold induction at 10 µM under setting [4] fell in the range of 10 to 100.

Consider `Cc1cc(Nc2ncn(-c3cnccn3)n2)cc(N2CCC(C3COC3)CC2)c1` [Compound 521, N-[3-methyl-5-[4-(oxetan-3-yl)-1-piperidyl]phenyl]-1-pyrazin-2-yl-1,2,4-triazol-3-amine], for which the fold induction at 1 µM under setting [3] lay within 100 to 1000. Besides, the fold induction at 10 µM under setting [4] is 100 to 1000.

In the case of `Cc1cc(Nc2ncn(-c3ccccn3)n2)c(F)c(N2CCN(C3COC3)CC2)c1` [Compound 908, N-[2-fluoro-5-methyl-3-[4-(oxetan-3-yl)piperazin-1-yl]phenyl]-1-(2-pyridyl)-1,2,4-triazol-3-amine], the fold induction at 1 µM under setting [5] lay within 1 to 10. Moreover, under setting [6], the fold induction at 10 µM lay in the range of 10 to 100.

Consider `Cc1cc(Nc2ncn(-c3ccnc(C)n3)n2)cc(N2CCN(C3COC3)CC2)c1` [Compound 418, N-[3-methyl-5-[4-(oxetan-3-yl)piperazin-1-yl]phenyl]-1-(2-methylpyrimidin-4-yl)-1,2,4-triazol-3-amine], for which the fold induction at 1 µM under setting [3] is no more than 1. In addition, the fold induction at 10 µM under setting [4] lay within 10 to 100.

On to `OCc1cc(Nc2ncn(-c3ccc(F)c(F)c3)n2)nc(N2CCN(C3COC3)CC2)c1` [Compound 713, [2-[[1-(3,4-difluorophenyl)-1,2,4-triazol-3-yl]amino]-6-[4-(oxetan-3-yl)piperazin-1-yl]-4-pyridyl]methanol], for which the fold induction at 1 µM under setting [3] fell in the range of 10 to 100. The fold induction at 10 µM under setting [4] lay in the range of 10 to 100.

`Cc1cc(Nc2ncn(-c3cc(F)cc(F)c3)n2)cc(NC2CCN(CC3CCOC3)CC2)c1` (stereo not shown) [Compound 1045, N3-[1-(3,5-difluorophenyl)-1,2,4-triazol-3-yl]-5-methyl-N1-[1-(tetrahydrofuran-3-ylmethyl)-4-piperidyl]benzene-1,3-diamine]: the fold induction at 1 µM under setting [5] was 1 to 10. Besides, the fold induction at 10 µM under setting [6] is no more than 1.

For the compound `Cc1cc(Nc2ncn(-c3cc(F)cc(F)c3)n2)cc([C@]2(C)CN(C)C(=O)O2)c1` (single isomer, unassigned) [Compound 796], under setting [5], the fold induction at 1 µM is 10 to 100. Under setting [6], the fold induction at 10 µM was no more than 1.

Consider `CC(C)Oc1cc(Nc2ncn(-c3cc(F)cc(F)c3)n2)cc(N2CCN(C3COC3)CC2)c1` [Compound 653, 1-(3,5-difluorophenyl)-N-[3-isopropoxy-5-[4-(oxetan-3-yl)piperazin-1-yl]phenyl]-1,2,4-triazol-3-amine], for which the fold induction at 1 µM under setting [3] lay within 10 to 100. In addition, under setting [4], the fold induction at 10 µM was no more than 1.

Turning to `Cc1cc(Nc2ncn(-c3cc(F)cc(F)c3)n2)cc(N2CCN(C(=O)C(F)(F)F)CC2)c1` [Compound 352, 1-[4-[3-[[1-(3,5-difluorophenyl)-1,2,4-triazol-3-yl]amino]-5-methyl-phenyl]piperazin-1-yl]-2,2,2-trifluoro-ethanone], under setting [1], the fold induction at 1 µM was no more than 1. The fold induction at 10 µM under setting [2] was in the range of 100 to 1000.

`Cc1cc(Nc2ncn(-c3ccccc3)n2)cc(C2CCNC2)c1` (stereo not shown) [Compound 39, N-(3-methyl-5-pyrrolidin-3-yl-phenyl)-1-phenyl-1,2,4-triazol-3-amine]: the fold induction at 1 µM under setting [1] lay within 1000 to 10000. Moreover, under setting [2], the fold induction at 10 µM is no more than 1.

On to `Cc1cc(Nc2ncn(-c3cc(F)cc(F)c3)n2)cc(N2CCCC(N3CCOCC3)C2)c1` (stereo not shown) [Compound 911, 1-(3,5-difluorophenyl)-N-[3-methyl-5-(3-morpholino-1-piperidyl)phenyl]-1,2,4-triazol-3-amine], for which the fold induction at 1 µM under setting [5] fell in the range of 1 to 10. Moreover, the fold induction at 10 µM under setting [6] lay in the range of 1 to 10.

With `Cc1cc(Nc2ncn(-c3cc(F)cc(F)c3)n2)cc(N2CCC(N3CC(F)(F)C3)CC2)c1` [Compound 745, N-[3-[4-(3,3-difluoroazetidin-1-yl)-1-piperidyl]-5-methyl-phenyl]-1-(3,5-difluorophenyl)-1,2,4-triazol-3-amine], the fold induction at 1 µM under setting [3] lay in the range of 10 to 100. Besides, the fold induction at 10 µM under setting [4] was no more than 1.

In the case of `Cc1cc(Nc2ncn(-c3cc(F)cc(F)c3)n2)cc([C@@H]2CCN(C3COC3)C[C@@H]2F)c1.Cc1cc(Nc2ncn(-c3cc(F)cc(F)c3)n2)cc([C@H]2CCN(C3COC3)C[C@H]2F)c1` [Compound 208, 1-(3,5-difluorophenyl)-N-[3-[(3S,4R)-3-fluoro-1-(oxetan-3-yl)-4-piperidyl]-5-methyl-phenyl]-1,2,4-triazol-3-amine; 1-(3,5-difluorophenyl)-N-[3-[(3R,4S)-3-fluoro-1-(oxetan-3-yl)-4-piperidyl]-5-methyl-phenyl]-1,2,4-triazol-3-amine], the “Fold myelin pixels above background, 1.0 μM” value (1.0 μM compound, relative to baseline of no added compound) was “+++ (>100 to 1000x)”. Also, the “Fold myelin pixels above background, 10.0 μM” value (10.0 μM compound, relative to baseline of no added compound) was “− (≤1)”.

In the case of `Cc1cc(N2CCN(C3COC3)CC2)cc(Nc2ncn(-c3cnccn3)n2)c1C` [Compound 470, N-[2,3-dimethyl-5-[4-(oxetan-3-yl)piperazin-1-yl]phenyl]-1-pyrazin-2-yl-1,2,4-triazol-3-amine], under setting [3], the fold induction at 1 µM lay in the range of 10 to 100. The fold induction at 10 µM under setting [4] was in the range of 100 to 1000.

In the case of `CC(C)Oc1cc(F)cc(-n2cnc(Nc3cc(C4CC4)cc(N4CCN(C5COC5)CC4)c3)n2)c1` [Compound 285, N-[3-cyclopropyl-5-[4-(oxetan-3-yl)piperazin-1-yl]phenyl]-1-(3-fluoro-5-isopropoxy-phenyl)-1,2,4-triazol-3-amine], the fold induction at 1 µM under setting [1] lay in the range of 1 to 10. Besides, the fold induction at 10 µM under setting [2] lay in the range of 10 to 100.

Take `Cc1cc(Nc2ncn(-c3cc(F)cc(F)c3)n2)nc(N2CC(C#N)C2)c1` [Compound 821, 1-[6-[[1-(3,5-difluorophenyl)-1,2,4-triazol-3-yl]amino]-4-methyl-2-pyridyl]azetidine-3-carbonitrile]: the fold induction at 1 µM under setting [5] was no more than 1. Also, the fold induction at 10 µM under setting [6] was 10 to 100.

On to `Cc1cc(Nc2ncn(-c3ccccc3)n2)cc(C2CCN(CC(F)F)C2)c1` (stereo not shown) [Compound 273, N-[3-[1-(2,2-difluoroethyl)pyrrolidin-3-yl]-5-methyl-phenyl]-1-phenyl-1,2,4-triazol-3-amine], for which, under setting [1], the fold induction at 1 µM lay within 1000 to 10000. Also, under setting [2], the fold induction at 10 µM was no more than 1.

As for `Cc1cc(Nc2ncn(-c3ccc(F)c(F)c3)n2)nc(N2CC(N3CCOCC3)C2)c1` [Compound 501, N-[1-(3,4-difluorophenyl)-1,2,4-triazol-3-yl]-4-methyl-6-(3-morpholinoazetidin-1-yl)pyridin-2-amine], the fold induction at 1 µM under setting [3] is 1 to 10. For the same compound, the fold induction at 10 µM under setting [4] was no more than 1.

In the case of `Cc1cc(Nc2ncn(-c3cc(F)cc(F)c3)n2)cc(N2CC(C(C)(C)O)C2)c1` [Compound 519, 2-[1-[3-[[1-(3,5-difluorophenyl)-1,2,4-triazol-3-yl]amino]-5-methyl-phenyl]azetidin-3-yl]propan-2-ol], the fold induction at 1 µM under setting [3] lay in the range of 100 to 1000. The fold induction at 10 µM under setting [4] is no more than 1.

For the compound `Cc1cc(Nc2ncn(-c3cc(F)cc(F)c3)n2)cc(N2CCN(C3CCCC3)C(=O)C2)c1` [Compound 905, 1-cyclopentyl-4-[3-[[1-(3,5-difluorophenyl)-1,2,4-triazol-3-yl]amino]-5-methyl-phenyl]piperazin-2-one], the fold induction at 1 µM under setting [5] lay within 1 to 10. Moreover, the fold induction at 10 µM under setting [6] was in the range of 10 to 100.

Regarding `Cc1cc(Nc2ncn(-c3cc(F)cc(F)c3)n2)nc(N2CCCC(F)C2)c1` (stereo not shown) [Compound 568, N-[1-(3,5-difluorophenyl)-1,2,4-triazol-3-yl]-6-(3-fluoro-1-piperidyl)-4-methyl-pyridin-2-amine], the fold induction at 1 µM under setting [3] lay in the range of 1 to 10. Also, under setting [4], the fold induction at 10 µM is no more than 1.

As for `Cc1cc(Nc2ncn(-c3ccccc3)n2)cc(N2CCN(CC(C)(C)O)CC2)c1` [Compound 461, 2-methyl-1-[4-[3-methyl-5-[(1-phenyl-1,2,4-triazol-3-yl)amino]phenyl]piperazin-1-yl]propan-2-ol], the fold induction at 1 µM under setting [3] was 1000 to 10000. Besides, the fold induction at 10 µM under setting [4] was no more than 1.

Turning to `CCOCC(O)CN1CCN(c2cc(C)cc(Nc3ncn(-c4cc(F)cc(F)c4)n3)c2)CC1` (stereo not shown) [Compound 900, 1-[4-[3-[[1-(3,5-difluorophenyl)-1,2,4-triazol-3-yl]amino]-5-methyl-phenyl]piperazin-1-yl]-3-ethoxy-propan-2-ol], the fold induction at 1 µM under setting [5] was in the range of 1 to 10. The fold induction at 10 µM under setting [6] is no more than 1.

In the case of `Cc1cc(Nc2ncn(-c3cc(F)cc(F)c3)n2)cc(N2C[C@@H]3C[C@H]2CN3C2CC2)c1` [Compound 78, N-[3-[(1S,4S)-2-cyclopropyl-2,5-diazabicyclo[2.2.1]heptan-5-yl]-5-methyl-phenyl]-1-(3,5-difluorophenyl)-1,2,4-triazol-3-amine], the fold induction at 1 µM under setting [1] lay within 100 to 1000. Further, the fold induction at 10 µM under setting [2] is no more than 1.

These data come from patent US10766869B2, “Triazoles for the treatment of demyelinating dieases” (Vertex Pharmaceuticals Incorporated, priority 2015, dated 2020).
